Measurements: article PMC4987650, “Structural Investigation of Park’s Nucleotide on Bacterial Translocase MraY: Discovery of Unexpected MraY Inhibitors” (Scientific Reports, 2016)
Entries after “also recorded” stand apart in the source; their conditions may differ.

Columns and labels:
[1] = test system: CC(=O)N[C@H]1[C@@H](OP(=O)(O)OP(=O)(O)OC[C@H]2O[C@@H](n3ccc(=O)[nH]c3=O)[C@H](O)[C@@H]2O)O[C@H](CO)[C@@H](O)[C@@H]1O[C@H](C)C(=O)N[C@@H](C)C(=O)N[C@H](CCC(=O)N[C@@H](CCCCNC(=O)CCCCCNc1ccc([N+](=O)[O-])c2nonc12)C(=O)N[C@H](C)C(=O)N[C@H](C)C(=O)O)C(=O)O; experiment: Fluorescent enhancement assay, mutant MraY; assay type: biochemical, Bacillus subtilis; settings: pH 8.0; 37.0 °C
Experimental: Site–directed mutagenesis of MraY. Site-directed mutagenesis of the B. subtilis MBP-tagged MraY enzyme was performed directly on the pMAL -BS-MraY-16 expression plasmid by using the “Quickchanged XL Site-Directed Mutagenesis Kit ’’ from stratagene and the oligonucleotides shown below. Mutations introduced in the mraY gene sequence were checked by DNA sequencing. […]
MraY-T51A-R 5’-[…]-3’
T53A MraY-T53A-F 5’-[…]-3’
MraY-T53A-R 5’-[…]-3’
K102A MraY-K102A-F 5’-[…]-3’
MraY-K102A-R 5’-[…]-3’
K226A Mray-K226A-F 5’-[…]-3’ […]
F228A MraY-F228A-F 5’-[…]-3’
MraY-F228A-R 5’-[…]-3’
Q271A Mray-Q271A-F 5’-[…]-3’
Mray-Q271A-R 5’-[…]-3’
R281A MraY-R281A-F 5’-[…]-3’
MraY-R281A-R 5’-[…]-3’
W297A MraY-W297A-F 5’-[…]-3’
MraY-W297A-R 5’-[…]-3’
(§1) Determine kinetic parameters by MraY fluorescence enhancement assay. The fluorescence enhancement assay was performed in 384-well plate as described by Bugg et al. with slight modifications.5 The reaction mixture containing MraYBS (10 μg/mL), C55P (200 μM) in 30 μL reaction buffer (30 mM Tris, 10 mM MgCl2, 10 mM NaCl, 0.1 mM Tween-20, 2.5% DMSO, pH 8.0) were pre-incubated at 37 °C for 15 min. The reactions were initiated by the addition of various concentrations of NBD-Park’s nucleotide 6 (0 to 160 μM). For inhibition study, a various concentrations of inhibitors were added before the addition of substrate 6. The continuous fluorescence increase over 60 min was monitored with λex 466 nm/λem 535 nm by fluorescence microplate reader (SpectraMax M5, Molecular Devices, LLC) at 37 °C. Linear regressions of increased fluorescent units (FLU) versus time (min) were used to calculate the initial velocities for each reaction. The kinetic parameters values (Ki, KM, and Vmax) were obtained by nonlinear regression analysis using the […] equation with the GraphPad Prism program (GraphPad Software, San
(§2) (1 picture or pasted object on this page, not shown here)

MraYBS [2] = target: T1, MraYBS (Bacillus subtilis, UniProt Q03521); experiment: HPLC-based MraY functional assay (substrate activity); assay type: biochemical; settings: Park's nucleotides 10 μM, MraYBS 40 μg/mL, C55P 1 mM, 37 °C, 24 h
T1 construct: MBP; made in house
T1 sequence (Q03521 1-324): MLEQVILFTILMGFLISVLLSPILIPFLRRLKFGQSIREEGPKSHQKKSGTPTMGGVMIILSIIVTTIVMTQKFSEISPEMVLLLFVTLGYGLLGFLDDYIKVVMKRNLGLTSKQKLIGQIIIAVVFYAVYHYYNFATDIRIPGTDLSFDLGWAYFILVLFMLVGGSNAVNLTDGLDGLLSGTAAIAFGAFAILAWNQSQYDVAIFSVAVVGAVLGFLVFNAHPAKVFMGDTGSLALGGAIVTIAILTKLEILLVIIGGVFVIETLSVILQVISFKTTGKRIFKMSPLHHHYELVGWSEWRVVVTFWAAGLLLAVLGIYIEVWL
Experimental: The purified MraY from Bacillus subtilis was prepared as described in our previous reports. […] […] The reaction mixtures were added by uridine (0.01 mg/mL) as the internal standard and heated to 100 °C to stop the transferring reaction. The samples were analyzed by RP-C18 HPLC with gradient elution of 0.25 M NH4HCO3(aq)/15% MeOH in water (100:0 to 0:100) at a flow rate of 1 mL/min over 45 min, and the peaks of substrates were monitored at UV 260 nm. For 6 and 11–17, the reaction mixture containing MraYBS (10 μg/mL), C55P (200 μM), 6-(7-Nitro-2,1,3-benzoxadiazol-4-ylamino)hexanoic acid (5 μM, internal standard) in 10 μL reaction buffer (30 mM Tris, 10 mM MgCl2, 10 mM NaCl, 0.1 mM Tween-20, 2.5% DMSO, pH 8.0) were pre-incubated at 37 °C for 15 min. […] The reaction mixtures were heated to 100 °C to stop the transferring reaction, and samples were analyzed by an anion-exchange column (SAX1, Supelco Co., 5 μm, 4.6 × 250 mm) with a linear gradient elution of NH4OAc (20 mM to 1 M in MeOH) at a flow rate of 1.0 mL/min over 30 min. The fluorescent substrates were monitored with λex 466 nm/λem 535 nm by fluorescence detector.

MraYBS [3] = target: T1, MraYBS; experiment: Biolayer interferometry-based (BLI) binding assay
Experimental: MraYBS binding was measured in a biolayer interferometry-based binding assay on Octet Red96® instrument (ForteBio, Inc.). The biotinylation of MraYBS was performed with using EZ-Link® Sulfo-NHS-LC-LC-Biotin Kit (Thermo Fisher Scientific, Inc.). In general, MraYBS (1.7 mg/mL) in 50 μL reaction buffer (0.01 M HEPES pH 7.4, 0.15 M NaCl, 0.005% v/v Surfactant P20), was added by the sulfo-NHS-LC-LC-biotin reagent (1 mM, 1 μL). After incubating for 30 minutes at room temperature, the biotinylated-MraYBS was purified by a Zeba^TM Spin Desalting Columns, 7K MWCO (Thermo Fisher Scientific, Inc.), and the buffer was changed to the binding buffer (30 mM Tris, 10 mM MgCl2, 10 mM NaCl, 0.1 mM Tween-20, pH 8.0) during the purification. Comparing to the non-biotinylated-MraYBS, the biotinylated-MraYBS remains 62% activity measured by the HPLC-based MraY functional assay in 1 h reaction. The biotinylated MraYBS was then immobilized to Super Streptavidin (SSA) Octet tips (ForteBio, Inc.) for reaching a fixed signal of 3 nm. Before the assay starting, the MraYBS-labeled SSA sensors were pre-soaked in binding buffer for 30 min. The association of Park’s analogues with MraYBS were measured by incubating MraYBS-labeled SSA sensors in binding buffer containing various concentrations of samples in Octet Red system. The dissociation was monitored by moving the ligand biosenors from the analyte solution to binding buffer. The dissociation constants (KD) were obtained by nonlinear regression analysis using the specific binding model with the GraphPad Prism program (GraphPad Software, San Diego, CA).

MraYBS [4] = target: T1, MraYBS; experiment: MraY fluorescence enhancement assay (kinetics, inhibition); assay type: biochemical; settings: for Inhibition Mode: Lineweaver-Burk, 6 as substrate
Experimental: as §1

S. aureus = experiment: Minimal inhibitory concentration, broth dilution; assay type: cell-based, S. aureus (BCRC 11863); settings: Staphylococcus aureus, standard broth dilution
Experimental: (§3) Determination of Minimal Inhibition Concentration (MIC). B. subtilis (BCRC 10614) and S. aureus (BCRC 11863) was obtained from Bioresource Collection and Research Center (BCRC), Taiwan. The minimal inhibitory concentration of tested compounds was determined following the NCCLS standard. The experiments were conducted in 96-well microtiter plates using 16-point 2-fold dilutions in Muller-Hilton broth. Exponentially growing cells at 5 × 10^5 cells/mL were incubated with test compounds at various concentrations in a final volume of 100 μL. After an 18 to 24 h incubation at 37 °C, the minimal concentration of the compound that prevents at least 95% bacterial growth was determined as the MIC value of a given molecule.
as §2

B. subtilis = experiment: Minimal inhibitory concentration, broth dilution; assay type: cell-based, B. subtilis (BCRC 10614); settings: Bacillus subtilis, standard broth dilution
Experimental: as §3, §2

[5] = substrate: CC(=O)N[C@H]1[C@@H](OP(=O)(O)OP(=O)(O)OC[C@H]2O[C@@H](n3ccc(=O)[nH]c3=O)[C@H](O)[C@@H]2O)O[C@H](CO)[C@@H](O)[C@@H]1O[C@H](C)C(=O)N[C@@H](C)C(=O)N[C@H](CCC(=O)N[C@@H](CCCCNC(=O)CCCCCNc1ccc([N+](=O)[O-])c2nonc12)C(=O)N[C@H](C)C(=O)N[C@H](C)C(=O)O)C(=O)O; experiment: MraY fluorescence enhancement assay (kinetics, inhibition); assay type: biochemical, Bacillus subtilis; settings: other: WT MraYBS, 6 as the substrate; pH 8.0; 37.0 °C
Experimental: as §1

Molecule: MraYBS T51A mutant (Bacillus subtilis subsp. subtilis str. 168; T51A)
- Km [1]: 24 ± 2 µM

Molecule: MraYBS W297A mutant (Bacillus subtilis subsp. subtilis str. 168; W297A)
- Km [1]: 63 ± 9 µM

Molecule: MraYBS F228A mutant (Bacillus subtilis subsp. subtilis str. 168; F228A)
- Km [1]: 18 ± 2 µM

Molecule: MraYBS R281A mutant (Bacillus subtilis subsp. subtilis str. 168; R281A)
- Km [1]: 20 ± 1 µM

Molecule: MraYBS Q271A mutant (Bacillus subtilis subsp. subtilis str. 168; Q271A)
- Km [1]: 72 ± 11 µM

Molecule: MraYBS K226A mutant (Bacillus subtilis subsp. subtilis str. 168; K226A)
- Km [1]: 24 ± 3 µM

Molecule: CC(=O)N[C@H]1[C@@H](OP(=O)(O)OP(=O)(O)OC[C@H]2O[C@@H](n3cc(NC(=O)Cc4ccc(C)cc4)c(=O)[nH]c3=O)[C@H](O)[C@@H]2O)O[C@H](CO)[C@@H](O)[C@@H]1O[C@H](C)C(=O)N[C@@H](C)C(=O)N[C@H](CCC(=O)N[C@@H](CCCCN)C(=O)N[C@H](C)C(=O)N[C@H](C)C(=O)O)C(=O)O [Compound 22]
- substrate under extreme reaction conditions (MraYBS [2]): not be a substrate
- Kd (MraYBS [3]): 86 ± 12 µM
- binding affinity fold stronger than that of 20 (MraYBS [3]; ratio of KD): approximately 2.3 fold
- Ki (MraYBS [4]): 4 ± 1 µM
- potency relative to tunicamycins (Ki) (MraYBS [4]): approximately two-fold; also recorded: roughly twice
- Inhibition Mode (MraYBS [4]): Competitive
- MIC (S. aureus): > 200 µM
- MIC (B. subtilis): > 200 µM

Molecule: MraYBS T53A mutant (Bacillus subtilis subsp. subtilis str. 168; T53A)
- Km [1]: 70 ± 11 µM

Molecule: MraYBS K102A mutant (Bacillus subtilis subsp. subtilis str. 168; K102A)
- Km [1]: 49 ± 9 µM

Molecule: CC(=O)N[C@H]1[C@@H](OP(=O)(O)OP(=O)(O)OC[C@H]2O[C@@H](n3cc(NC(=O)Cc4ccc(C)cc4)c(=O)[nH]c3=O)[C@H](O)[C@@H]2O)O[C@H](CO)[C@@H](O)[C@@H]1O[C@H](C)C(=O)N[C@@H](C)C(=O)O [Compound 20]
- Kd (MraYBS [3]): 197 ± 47 µM
- binding affinity fold stronger than that of 19 (MraYBS [3]; ratio of KD): approximately 1.5 fold
- Ki (MraYBS [4]): 11 ± 3 µM
- difference of inhibition abilities (Ki values) of 19 and 20 (MraYBS [4]): 70 fold
- Inhibition Mode (MraYBS [4]): Competitive
- MIC (S. aureus): > 200 µM
- MIC (B. subtilis): > 200 µM

B1: MraYBS (Bacillus subtilis subsp. subtilis str. 168) (protein)
chain: MLEQVILFTILMGFLISVLLSPILIPFLRRLKFGQSIREEGPKSHQKKSGTPTMGGVMIILSIIVTTIVMTQKFSEISPEMVLLLFVTLGYGLLGFLDDYIKVVMKRNLGLTSKQKLIGQIIIAVVFYAVYHYYNFATDIRIPGTDLSFDLGWAYFILVLFMLVGGSNAVNLTDGLDGLLSGTAAIAFGAFAILAWNQSQYDVAIFSVAVVGAVLGFLVFNAHPAKVFMGDTGSLALGGAIVTIAILTKLEILLVIIGGVFVIETLSVILQVISFKTTGKRIFKMSPLHHHYELVGWSEWRVVVTFWAAGLLLAVLGIYIEVWL
notes: MBP; made in house
- Km [5]: 18 ± 1 µM
